{"source": "paper PMC11369183", "about": "“PARP inhibition with rucaparib alone followed by combination with atezolizumab: Phase Ib COUPLET clinical study in advanced gynaecological and triple-negative breast cancers” (British Journal of Cancer, 2024)", "key": {"[1]": {"system": "ovarian cancer, patients with measurable disease", "design": "method as in PMID 32073956", "conditions": "olaparib alone; cited from earlier work"}, "[2]": {"description": "The primary objective was to evaluate the safety and tolerability of the combination by identifying dose-limiting toxicities (DLTs; Supplementary Table 1) that determined the maximum tolerated dose and identifying a potential recommended dose and schedule for subsequent assessments. Safety endpoints included the incidence, nature, and severity of adverse events (AEs) and DLTs according to National Cancer Institute Common Terminology Criteria for Adverse Events version 4.03. Secondary efficacy endpoints comprised objective response rate (ORR) according to Response Evaluation Criteria in Solid Tumours (RECIST) version 1.1, duration of response, progression-free survival (PFS) according to RECIST version 1.1, and overall survival (OS). The PK objective was to determine the PK of rucaparib and atezolizumab combination therapy in plasma and serum, with pre-specified parameters including steady-state maximum concentration observed (Cmax), time to maximum concentration (Tmax), and area under the concentration–time curve (AUC) for rucaparib and serum concentration of atezolizumab in Part 1, and minimum concentration during the dosing interval or trough concentration (Cmin) of rucaparib and serum concentration of atezolizumab in Part 2. The incidence of antidrug antibodies (ADAs) to atezolizumab was an additional secondary endpoint. The study also included pre-specified exploratory biomarker objectives: to evaluate predictive and pharmacodynamic biomarkers of response or resistance to combined rucaparib and atezolizumab therapy in tumour biopsies and blood; and to evaluate additional biomarkers of HRD and novel biomarkers and correlate them with response and/or clinical outcome, including efficacy and safety. No formal statistical analyses were planned.\nIn Part 1 (dose-finding phase), patients with histologically confirmed ovarian or endometrial cancer who had received at least one prior line of therapy for metastatic disease received varying doses of oral rucaparib (400 mg twice daily in the first cohort, 600 mg twice daily in the second cohort, decreasing to 500 mg in the third cohort if necessary) in combination with a fixed dose of intravenous atezolizumab 1200 mg on Day 1. Cycles were repeated every 21 days and continued until unacceptable toxicity or disease progression if, in the investigator’s opinion, the patient would not derive clinical benefit from continued study treatment. It was planned to enroll ~six to 18 patients in up to three dose cohorts. […] In Part 2 (dose-expansion phase), the recommended Phase II dose was evaluated further for safety, PK, and preliminary activity in two tumour-specific expansion cohorts with an initially targeted enrollment of up to ~50 patients in total. In Cohort 1, eligible patients had platinum-sensitive high-grade serous or grade 3 endometrioid epithelial ovarian, fallopian tube, or primary peritoneal cancer with tumours harbouring a deleterious germline or somatic BRCA mutation (tBRCAmut, Arm A) or a tBRCA-like molecular signature (tBRCA-wild type [wt]/loss of heterozygosity [LOH]high, Arm B). Patients had received one to two prior platinum-containing regimens, with progression >6 months after the last dose of the most recent platinum therapy. In Cohort 2 (Arm C), patients had tBRCAmut or tBRCAwt/LOHhigh TNBC and had received at least one prior line of chemotherapy (without cancer immunotherapy) in the metastatic setting. Part 2 treatment comprised a 21-day run-in period of single-agent rucaparib at the identified recommended rucaparib starting dose (run-in), followed by rucaparib in combination with intravenous atezolizumab 1200 mg on Day 1 (combination). Cycles were repeated every 21 days."}, "clinical": {"test": "clinical", "design": "species or system human", "conditions": "in vivo; for Cmax: female", "description": "(§1) No formal statistical analyses were planned."}, "[3]": {"system": "DNA damage repair signature", "test": "RNA sequencing signature in longitudinal tumour biopsies: DDR", "assay_type": "in vivo, human", "conditions": "after the rucaparib run-in", "description": "(§2) All patients (Parts 1 and 2) were required to have sufficient archival formalin-fixed paraffin-embedded (FFPE) tumour tissue available for planned analyses. […] A further biopsy at disease progression was optional. Tumour and biomarker characteristics are described according to central review result. However, patients could be enrolled or assigned to a cohort based on local test results, to avoid delaying treatment initiation. […] Patients were ineligible if they had previously received treatment with a PARPi, CD137 agonist, or other ICI (including but not limited to anti-PD-1, anti-PD-L1, and anti-CTLA-4 therapeutic antibodies). […] RNA sequencing reads were first aligned to ribosomal RNA sequences to remove ribosomal reads. The remaining reads were aligned to the human reference genome (National Center for Biotechnology Information Build 38) using Genomic Short-read Nucleotide Alignment Program (GSNAP) version 2013-11-01. To quantify gene expression levels, the number of reads mapped to the exons of each RefSeq gene was calculated using the functionality provided by the R/Bioconductor package GenomicAlignments. For each cohort, raw counts for genes were trimmed mean of M-values (TMM)-normalised based on size factors as calculated with CalcNormFactors in the edgeR package. […]"}, "Apoptosis signature": {"system": "Apoptosis signature", "test": "RNA sequencing signature in longitudinal tumour biopsies: apoptosis", "assay_type": "in vivo, human", "conditions": "during run-in, responding patients", "description": "as §2"}, "CD274 (PD-L1 gene)": {"system": "CD274 (PD-L1 gene)", "test": "RNA sequencing in longitudinal tumour biopsies: CD274", "assay_type": "in vivo, human", "conditions": "after rucaparib run-in, responders (not in non-responders)", "description": "as §2"}, "[4]": {"system": "CD8 T-cell activity signature", "test": "RNA sequencing signature in longitudinal tumour biopsies: CD8 T-cell activity", "assay_type": "in vivo, human", "conditions": "during rucaparib run-in, in four of five responders", "description": "as §2"}, "cGAS-STING pathway": {"system": "cGAS-STING pathway", "test": "RNA sequencing signature in longitudinal tumour biopsies: cGAS-STING", "assay_type": "in vivo, human", "conditions": "during rucaparib run-in, in four of five responders", "description": "as §2"}, "[5]": {"test": "Atezolizumab serum concentration (sparse PK sampling)", "assay_type": "in vivo", "description": "as §1"}, "[6]": {"system": "antidrug antibodies (ADAs) to atezolizumab", "test": "Incidence of antidrug antibodies (ADAs) to atezolizumab", "assay_type": "in vivo, human", "conditions": "one of 28 patients evaluable for ADA", "description": "as §1"}, "[7]": {"conditions": "Part 2 TNBC Arm C, n = 5, run-in"}, "[8]": {"conditions": "Part 2 ovarian cancer Arms A + B, n = 14, run-in"}, "[9]": {"conditions": "Cycle 1 arithmetic mean (CV), sparse PK sampling, Part 2 ovarian cancer Arm B (tBRCAwt/LOHhigh), n = 4"}}, "note": "Read-outs that look alike come from different tables or passages of the source.", "data": [{"compound": "O=C(c1cc(Cc2n[nH]c(=O)c3ccccc23)ccc1F)N1CCN(C(=O)C2CC2)CC1", "note": "[olaparib]", "values": [{"measurement": "ORR", "setting": "[1]", "value": 72, "unit": "%"}]}, {"compound": "CNCc1ccc(-c2[nH]c3cc(F)cc4c3c2CCNC4=O)cc1", "note": "[rucaparib]", "values": [{"measurement": "Grade 5 AE", "setting": "[2]; [7]", "value": "0 n (%)"}, {"measurement": "Grade 5 AE", "setting": "[2]; [8]", "value": "0 n (%)"}, {"measurement": "AE leading to treatment modification/interruption: Rucaparib", "setting": "[2]; human, in vivo", "value": "1 (20) n (%)"}, {"measurement": "AE leading to treatment discontinuation", "setting": "[2]; human, in vivo, 21 days", "value": "0 n (%)"}, {"measurement": "AE leading to treatment modification/interruption", "setting": "[2]; human, in vivo, 21 days", "value": "1 (20) n (%)"}, {"measurement": "AE leading to treatment modification/interruption: Rucaparib", "setting": "[2]; human, in vivo, 21 days", "value": "1 (20) n (%)"}, {"measurement": "Any grade AE", "setting": "[2]; human, in vivo, 21 days", "value": "5 (100) n (%)"}, {"measurement": "Grade 3/4 AE", "setting": "[2]; human, in vivo, 21 days", "value": "2 (40) n (%)"}, {"measurement": "Treatment-related AE", "setting": "[2]; human, in vivo, 21 days", "value": "4 (80) n (%)"}, {"measurement": "Cmax", "setting": "clinical; human, 400 mg", "value": 2270, "unit": "ng/mL"}, {"measurement": "Cmax", "setting": "clinical; human, 600 mg", "value": 3180, "unit": "ng/mL"}, {"measurement": "Inter-individual variability in exposure, AUC", "setting": "clinical; human", "value": "21.2–41.6%"}, {"measurement": "Inter-individual variability in exposure, Cmax", "setting": "clinical; human", "value": "27.4–46.8%"}, {"measurement": "Inter-individual variability in exposure, Cmin", "setting": "clinical; human", "value": "28.6–88.7%"}, {"measurement": "Tmax", "setting": "clinical; human", "value": "1.5 to 6", "unit": "h"}, {"measurement": "Rucaparib AUClast", "setting": "clinical; human, 400 mg", "value": "(n = 2) 15 072 (21.2) h·ng/mL"}, {"measurement": "Rucaparib AUClast", "setting": "clinical; human, 600 mg", "value": "(n = 6) 22 082 (41.6) h·ng/mL"}, {"measurement": "Rucaparib Cmin", "setting": "clinical; human, 21 days", "value": "(n = 5) 1180 (52.5) ng/mL"}, {"measurement": "Dose proportionality of kinetics", "setting": "clinical", "value": "dose-proportional kinetics"}, {"measurement": "Patients with decreased DDR signature", "setting": "[3]; non-responders (by <10%)", "value": "one of four"}, {"measurement": "Patients with decreased DDR signature", "setting": "[3]; responders", "value": "four of five"}, {"measurement": "Patients with increased apoptosis signature expression", "setting": "Apoptosis signature", "value": "three of five"}, {"measurement": "Patients with increased CD274 expression", "setting": "CD274 (PD-L1 gene)", "value": "three of five"}, {"measurement": "Increase in CD8 + T-cell activity", "setting": "[4]", "value": "> 50", "unit": "%"}, {"measurement": "Increase in cGAS-STING pathway activation", "setting": "cGAS-STING pathway", "value": "> 100", "unit": "%"}]}, {"compound": "atezolizumab", "values": [{"measurement": "AE leading to treatment modification/interruption: Atezolizumab", "setting": "[2]; Part 1 Cohort 1 (rucaparib 400 mg), n = 3", "value": "1 (33) n (%)"}, {"measurement": "AE leading to treatment modification/interruption: Atezolizumab", "setting": "[2]; Part 1 Cohort 2 (rucaparib 600 mg), n = 6", "value": "1 (17) n (%)"}, {"measurement": "AE leading to treatment modification/interruption: Atezolizumab", "setting": "[2]; Part 2 TNBC Arm C, n = 5, post run-in", "value": "1 (20) n (%)"}, {"measurement": "AE leading to treatment modification/interruption: Atezolizumab", "setting": "[2]; [7]", "value": "0 n (%)"}, {"measurement": "AE leading to treatment modification/interruption: Atezolizumab", "setting": "[2]; Part 2 ovarian cancer Arms A + B, n = 14, post run-in", "value": "5 (36) n (%)"}, {"measurement": "AE leading to treatment modification/interruption: Atezolizumab", "setting": "[2]; [8]", "value": "0 n (%)"}, {"measurement": "Atezolizumab Cmin", "setting": "[5]; Cycle 1 arithmetic mean (CV), sparse PK sampling, Part 1 Cohort 1, n = 3", "value": "(n = 3) 84.3 (32.0) μg/mL"}, {"measurement": "Atezolizumab Cmin", "setting": "[5]; Cycle 1 arithmetic mean (CV), sparse PK sampling, Part 1 Cohort 2, n = 5", "value": "(n = 5) 96.0 (23.8) μg/mL"}, {"measurement": "Atezolizumab Cmin", "setting": "[5]; Cycle 1 arithmetic mean (CV), sparse PK sampling, Part 2 TNBC Arm C, n = 4", "value": "(n = 4) 98.7 (26.3) μg/mL"}, {"measurement": "Atezolizumab Cmin", "setting": "[5]; Cycle 1 arithmetic mean (CV), sparse PK sampling, Part 2 ovarian cancer Arm A (tBRCAmut), n = 10", "value": "(n = 10) 77.2 (22.1) μg/mL"}, {"measurement": "Atezolizumab Cmax", "setting": "[5]; [9]", "value": "(n = 4) 438 (9.4) μg/mL"}, {"measurement": "Atezolizumab Cmin", "setting": "[5]; [9]", "value": "(n = 4) 95.7 (17.9) μg/mL"}, {"measurement": "Trough concentrations (Ctrough)", "setting": "[5]; all trough concentrations exceeded the target concentration for maximal receptor occupancy", "value": "> 6000", "unit": "ng/mL"}, {"measurement": "Inter-patient variability, Cmax", "setting": "[5]; atezolizumab", "value": "7.0–35.3%"}, {"measurement": "Inter-patient variability, Cmin", "setting": "[5]; atezolizumab", "value": "17.9–32.0%"}, {"measurement": "Patients positive for treatment-emergent ADAs", "setting": "[6]", "value": 4, "unit": "%"}]}]}
